Reference: patent US8252047B2, “Drug-delivery endovascular stent and method for treating restenosis” (Biosensors International Group, Ltd., priority 2004, dated 2012)

How the values were obtained:
physchem = assay: physchem
From the text: The coating may also include binders or small molecules designed to optimize the tissue solubility of the drug coating, to produce a desired cohesiveness in the drug coating, and a desired drug release rate in the implanted stent.

[1] = in vitro drug elution in PBS from platinum-coated stent; format: physicochemical; details: 252 μg on platinum-plated anchoring layer stent, by day 34
From the text: FIG. 7 is an elution profile in PBS of the drug Biolimus A-9 from the stent of the invention as measured by the total amount of drug released in μg over cumulative time in hours.
It will be appreciated that the actual rate of drug release in vivo will be much greater, e.g., the bulk of the drug released will be released within the first few days following implantation, due to the greater hydrophobicity of the cell-membrane environment in vivo. However, the in vitro release in a purely aqueous medium provides a useful standard for formulating the drug coating, to achieve an effective drug release rate in vivo and also to achieve, a desired drug-layer cohesiveness.

[2] = tested on: restenosis in porcine coronary arteries; assay: swine restenosis animal model, stent implantation; format: in vivo; details: 28 days after implantation, platinum anchoring layer stent with vs without drug coating
From the text: Briefly, studies conducted in support of the present invention compared the extent of restenosis at 28 days following stent implantation, in metal stents having an electroplated platinum anchoring layer, with or without a drug coating of Biolimus A-9.

[3] = cited from earlier work

Which “log P (log partition coefficient between octanol and water)” value (shortened to “log P”) (physchem) does the source give for `CCOCCO[C@@H]1CC[C@@H](C[C@@H](C)[C@@H]2CC(=O)[C@H](C)/C=C(\C)[C@@H](O)[C@@H](OC)C(=O)[C@H](C)C[C@H](C)/C=C/C=C/C=C(\C)[C@@H](OC)C[C@@H]3CC[C@@H](C)[C@@](O)(O3)C(=O)C(=O)N3CCCC[C@H]3C(=O)O2)C[C@H]1OC` [Biolimus A-9] here?
Its value is 7.63.

And the “fraction of drug eluted from the stent” value [1]?
Its value is “about one-third”.

And the extent of restenosis [2]?
The extent of restenosis was “significantly reduced the extent of restenosis”.

With `CO[C@H]1C[C@@H]2CC[C@@H](C)[C@@](O)(O2)C(=O)C(=O)N2CCCC[C@H]2C(=O)O[C@H]([C@H](C)C[C@@H]2CC[C@@H](OCCO)[C@H](OC)C2)CC(=O)[C@H](C)/C=C(\C)[C@@H](O)[C@@H](OC)C(=O)[C@H](C)C[C@H](C)/C=C/C=C/C=C/1C` [everolimus] as the molecule, how does the “log P” value (physchem) read?
The value was 6.70.

For `CC(=O)O[C@H]1C(=O)[C@@]2(C)[C@H]([C@H](OC(=O)c3ccccc3)[C@]3(O)C[C@H](OC(=O)[C@H](O)[C@@H](NC(=O)c4ccccc4)c4ccccc4)C(C)=C1C3(C)C)[C@]1(OC(C)=O)CO[C@@H]1C[C@@H]2O` [paclitaxel], which chromatographic logP (physchem) is on record?
Its chromatographic logP is 4.68.

Which solubility in acetone ([3]; acetone) does the source give for `CCc1ccc(CCOc2ccc(CC3SC(=O)NC3=O)cc2)nc1` (stereo not drawn) [pioglitazone] here?
Its solubility in acetone is “slightly soluble”.

And the solubility in ethanol ([3]; ethanol)?
The solubility in ethanol was “slightly soluble”.

What about the solubility in water ([3]; water) of the same molecule?
Its solubility in water is “insoluble”.

With `CO[C@H]1C[C@@H]2CC[C@@H](C)[C@@](O)(O2)C(=O)C(=O)N2CCCC[C@H]2C(=O)O[C@H]([C@H](C)C[C@@H]2CC[C@@H](O)[C@H](OC)C2)CC(=O)[C@H](C)/C=C(\C)[C@@H](O)[C@@H](OC)C(=O)[C@H](C)C[C@H](C)/C=C/C=C/C=C/1C` [rapamycin] as the molecule, how does the “log P” value (physchem; modified HPLC method (Lombardo et al.)) read?
Its value is 6.51.
